Results published in patent US20240158383A1, “RIBONUCLEOTIDE REDUCTASE (RNR) INHIBITORS AND USES THEREOF” (Boundless Bio, Inc., priority 2021, published 2024).

Experiments:
[1] = tested on: pCHK1 (S345) in Colo320 DM cells; experiment: CHK1 cellular activity (phospho-CHK1 AlphaLisa); assay type: cell-based, human; details: compound overnight (approximately 16 hours)
Procedure: Phospho-CHK1 cellular activity was measured as a marker of replication stress which is a consequence of RNR inhibition.
Colo320 DM cells (ATCC #CCL-220, derived from human colorectal adenocarcinoma, Dukes' type C) were seeded on a 96-well cell culture treated assay plate at a density of 50,000 cells/well in 200 μL of RPMI-1640 media supplemented with 10% Fetal Bovine Serum and incubated at 37 degrees Celsius overnight. The following day, test compound dilutions were added directly to the plated cells by a Tecan digital dispenser to a final DMSO concentration of <0.5% and incubated at 37 degrees Celsius overnight (approximately 16 hours). The following day all culture media is removed from the cells. 75 μL of 1× AlphaLisa lysis buffer is added to each well and plates are agitated on a shaker for 30 minutes at room temperature. The lysis of cells and detection of pCHK1 (S345) are performed with reagents contained within the AlphaLisa Sure Fire assay kit (Perkin Elmer #ALSU-PCHK1-A) according to the manufacturer's instructions. 10 μL of each lysate was then transferred to a white, 384-well assay plate (Perkin Elmer #6008280). 5 μL of Acceptor mix was then added to each well of lysate in the white, 384-well assay plate and incubated in the dark at room temperature for 60 minutes. 5 μL of Donor mix was then added to each well of the white, 384-well assay plate in subdued light and incubated at room temperature for 60 minutes. Plates are read on an Alpha Technology-compatible plate reader using standard AlphaLisa settings.

RNR (RNR1:RNR2) = RNR (RNR1:RNR2) (Homo sapiens (Human), UniProt P23921+P31350); experiment: RNR enzyme activity, rapid-fire mass spectrometry (RFMS) assay; assay type: biochemical; details: [RNR] 50 nM, 1:1 RNR1:RNR2, [CDP] 5 μM, [ATP] 1 mM, 37° C., 45 min
RNR (RNR1:RNR2), sequence (P23921 whole entry): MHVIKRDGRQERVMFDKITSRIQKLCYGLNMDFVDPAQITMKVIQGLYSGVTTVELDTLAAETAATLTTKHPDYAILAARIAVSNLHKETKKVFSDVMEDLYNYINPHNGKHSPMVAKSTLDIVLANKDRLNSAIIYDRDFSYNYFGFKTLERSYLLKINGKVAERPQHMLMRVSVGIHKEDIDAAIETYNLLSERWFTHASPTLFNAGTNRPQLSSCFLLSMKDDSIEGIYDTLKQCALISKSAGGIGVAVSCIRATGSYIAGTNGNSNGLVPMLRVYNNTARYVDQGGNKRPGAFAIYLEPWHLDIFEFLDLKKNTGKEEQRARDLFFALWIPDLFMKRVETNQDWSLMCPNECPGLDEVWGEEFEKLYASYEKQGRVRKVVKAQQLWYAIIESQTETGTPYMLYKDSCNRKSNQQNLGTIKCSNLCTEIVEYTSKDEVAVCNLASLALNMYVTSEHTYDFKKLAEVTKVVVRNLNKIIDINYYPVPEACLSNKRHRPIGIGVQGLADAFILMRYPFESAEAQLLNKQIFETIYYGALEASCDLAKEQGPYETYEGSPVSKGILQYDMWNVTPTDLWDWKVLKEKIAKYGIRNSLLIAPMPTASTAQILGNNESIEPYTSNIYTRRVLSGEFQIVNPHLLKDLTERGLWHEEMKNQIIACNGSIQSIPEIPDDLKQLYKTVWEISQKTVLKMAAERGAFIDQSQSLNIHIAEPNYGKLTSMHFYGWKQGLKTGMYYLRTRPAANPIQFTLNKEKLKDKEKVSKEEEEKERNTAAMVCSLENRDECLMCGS
RNR (RNR1:RNR2), sequence (P31350 whole entry): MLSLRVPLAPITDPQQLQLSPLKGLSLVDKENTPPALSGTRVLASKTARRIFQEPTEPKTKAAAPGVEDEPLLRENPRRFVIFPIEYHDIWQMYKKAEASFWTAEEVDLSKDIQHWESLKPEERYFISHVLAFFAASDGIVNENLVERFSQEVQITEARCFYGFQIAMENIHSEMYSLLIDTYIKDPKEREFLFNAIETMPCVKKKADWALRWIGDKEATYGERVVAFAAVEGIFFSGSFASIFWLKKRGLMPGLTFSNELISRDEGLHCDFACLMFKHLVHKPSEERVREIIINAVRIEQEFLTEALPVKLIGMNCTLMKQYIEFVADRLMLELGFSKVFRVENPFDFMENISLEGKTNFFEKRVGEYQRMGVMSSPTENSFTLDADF
Procedure: A rapid-fire mass spectrometry (RFMS) assay was used to assess RNR enzyme activity using a 384 well plate and a robotic platform.
The plate layout included two validated reference compounds (Triapine (3-AP) and Hydroxyurea (HU)): • A dose response in duplicate; top concentration: 5 μM (3-AP) and 250 μM (HU), semi-log • dilutions. • Spike wells in triplicate randomly spotted at four concentrations: • 250 μM, 100 μM, 30 μM and 2 μM for HU • 5 μM, 2 μM, 0.6 μM and 0.04 μM for 3-AP
First, the multidrop pipes were saturated for 30 minutes with enzymatic solution. Then 30 μL of Stop solution was distributed in column 24. Next, 15 μL of enzyme was distributed in column 1 to 24. Next, a pre-incubation step of 15 minutes at room temperature occurred, followed by distribution of 15 μL of substrate solution (column 1 to 24). Next, the plate was incubated for 45 minutes at 37° C. 30 μL of Stop solution was distributed to columns 1 to 23.
The final parameters for the enzyme reactions were: • Incubation: 37° C., 45 min • [CDP]: 5 μM; [ATP]: 1 mM; [NADPH]: No • [RNR]final: 50 nM with 1:1 (RNR1:RNR2) ratio • Final volume: 30 μL • Stop solution: 6% HCOOH containing 2 μM of 15
The compounds were screened at concentrations from 10 nM to 30 μM.

Row | SMILES | IC50 ([1]; Homo sapiens, COLO 320DM, 16 h) [µM] | IC50 (RNR (RNR1:RNR2)) [µM] | IC50 [1] [µM]
1 | Cc1ccc(F)c([C@@H](C)[C@H](NS(=O)(=O)c2cc(C(C)(C)O)c(Cl)cc2C(N)=O)c2nn[nH]n2)c1C (racemic) [Example 13, rac-5-chloro-2-(N-((1R,2S)-2-(6-fluoro-2,3-dimethylphenyl)-1-(2H-tetrazol-5-yl)propyl)sulfamoyl)-4-(2-hydroxypropan-2-yl)benzamide] | 50 to 100 | ≤ 0.1 | 
2 | COC(=O)Cc1cc(Cl)ccc1S(=O)(=O)N[C@H](c1nn[nH]n1)[C@H](C)c1c(F)ccc(C)c1C (racemic) [Example 14, rac-methyl 2-(5-chloro-2-(N-((1R,2S)-2-(6-fluoro-2,3-dimethylphenyl)-1-(2H-tetrazol-5-yl)propyl)sulfamoyl)phenyl)acetate] | 10 to 30 | 0.1 to 1 | 
3 | Cc1ccc(F)c([C@@H](C)[C@H](NS(=O)(=O)c2ncc(Br)cc2C(N)=O)c2nn[nH]n2)c1C (racemic) [Example 15, rac-5-bromo-2-(N-((1R,2S)-2-(6-fluoro-2,3-dimethylphenyl)-1-(2H-tetrazol-5-yl)propyl)sulfamoyl)nicotinamide] | 50 to 100 | ≤ 0.1 | 
4 | COc1c(S(=O)(=O)N[C@H](c2nn[nH]n2)[C@H](C)c2c(F)ccc(C)c2C)ccc(Cl)c1[C@H](C)O (racemic) [Example 16, rac-4-chloro-N-((1R,2S)-2-(6-fluoro-2,3-dimethyphenyl)-1-(2H-tetrazol-5-yl)propyl)-3-((R)-1-hydroxyethyl)-2-methoxybenzenesulfonamide] | 10 to 30 | ≤ 0.1 | 
5 | COc1c(S(=O)(=O)N[C@H](c2nn[nH]n2)[C@H](C)c2c(F)ccc(C)c2C)ccc(Cl)c1[C@@H](C)O (racemic) [Example 17, rac-4-chloro-N-((1R,2S)-2-(6-fluoro-2,3-dimethylphenyl)-1-(2H-tetrazol-5-yl)propyl)-3-((S)-1-hydroxyethyl)-2-methoxybenzenesulfonamide] | 10 to 30 | ≤ 0.1 | 
6 | Cc1ccc(F)c([C@@H](C)[C@H](NS(=O)(=O)c2ccc(C#N)cc2OC(F)F)c2nn[nH]n2)c1C (racemic) [Example 69, rac-4-cyano-2-(difluoromethxoy)-N-((1R,2S)-2-(6-fluoro-2,3-dimethylphenyl)-1-(2H-tetrazol-5-yl)propyl)benzenesulfonamide] | 50 to 100 | 0.1 to 1 | 
7 | COc1c(S(=O)(=O)N[C@H](c2nn[nH]n2)[C@H](C)c2c(F)ccc(C)c2C)ccc(C#N)c1F (racemic) [Example 70, rac-4-cyano-3-fluoro-N-((1R,2S)-2-(6-fluoro-2,3-dimethylphenyl)-1-(2H-tetrazol-5-yl)propyl)-2-methoxybenzenesulfonamide] | 50 to 100 | 0.1 to 1 | 
8 | Cc1ccc(F)c([C@@H](C)[C@H](NS(=O)(=O)c2ccc(Cl)cc2N(C)C)c2nn[nH]n2)c1C (racemic) [Example 71, rac-4-chloro-2-(dimethylamino)-N-((1R,2S)-2-(6-fluoro-2,3-dimethylphenyl)-1-(2H-tetrazol-5-yl)propyl)benzenesulfonamide] | ≤ 10 | ≤ 0.1 | 
9 | Cc1ccc(F)c([C@@H](C)[C@H](NS(=O)(=O)c2ccc(Cl)c3c2OCC[C@]3(C)O)c2nn[nH]n2)c1C (single isomer, unassigned) [Example 3] | 10 to 30 | ≤ 0.1 | 
10 | Cc1ccc(F)c([C@@H](C)[C@H](NS(=O)(=O)c2ccc(Cl)c3c2OCC[C@@]3(C)O)c2nn[nH]n2)c1C (single isomer, unassigned) [Example 4] |  | ≤ 0.1 | 10 to 30
11 | COc1cc(Cl)ccc1S(=O)(=O)N[C@H](c1nn[nH]n1)[C@H](C)c1c(F)ccc(C)c1C [Example 1, 4-chloro-N-[(1S,2R)-2-(6-fluoro-2,3-dimethylphenyl)-1-(2H-1,2,3,4-tetrazol-5-yl)propyl]-2-methoxybenzene-1-sulfonamide] | ≤ 10 | ≤ 0.1 | 
12 | Cc1ccc(F)c([C@@H](C)[C@H](NS(=O)(=O)c2ccc(Cl)cc2C(N)=O)c2nn[nH]n2)c1C [Example 2, 5-chloro-2-(N-((1S,2R)-2-(6-fluoro-2,3-dimethylphenyl)-1-(2H-tetrazol-5-yl)propyl)sulfamoyl)benzamide] | 50 to 100 | ≤ 0.1 | 
13 | Cc1ccc(F)c([C@@H](C)[C@H](NS(=O)(=O)c2ccc(Cl)cc2C#N)c2nn[nH]n2)c1C [Example 5, 4-chloro-2-cyano-N-((1S2R)-2-(6-fluoro-2,3-dimethylphenyl)-1-(2H-tetrazol-5-yl)propyl)benzenesulfonamide] | 50 to 100 | 0.1 to 1 | 
14 | Cc1ccc(F)c([C@@H](C)[C@H](NS(=O)(=O)c2ccc(Cl)cc2NC(C)C)c2nn[nH]n2)c1C [Example 6, 4-chloro-N-((1S,2R)-2-(6-fluoro-2,3-dimethylphenyl)-1-(2H-tetrazol-5-yl)propyl)-2-(isopropylamino)benzenesulfonamide] | 50 to 100 |  | 
15 | Cc1ccc(F)c([C@@H](C)[C@H](NS(=O)(=O)c2ccc(Cl)c3c2OCC[C@@]3(C)O)c2nn[nH]n2)c1C [Example 7, 5-((1S,2R)-1-(((R)-5-chloro-4-hydroxy-4-methylchromane)-8-sulfonamido)-2-(6-fluoro-2,3-dimethylphenyl)propyl)tetrazol-2-ide] |  | ≤ 0.1 | 30 to 50
16 | Cc1ccc(F)c([C@@H](C)[C@H](NS(=O)(=O)C2CCCCC2)c2nn[nH]n2)c1C [Example 8, N-((1S,4S)-2-(6-fluoro-2,3-dimethylphenyl)-1-(2H-tetraozl-5-yl)propyl)cyclohexanesulfonamide] | 50 to 100 | 1 to 5 | 
17 | Cc1ccc(F)c([C@H](C)[C@H](c2nn[nH]n2)c2c(S(N)(=O)=O)ccc(Cl)c2C#N)c1C [Example 51, 4-chloro-3-cyano-2-((1S,2R)-2-(6-fluoro-2,3-dimethylphenyl)-1-(2H-tetrazol-5-yl)propyl)benzenesulfonamide] |  | 0.1 to 1 | 
18 | Cc1ccc(F)c(S(=O)(=O)N[C@H](c2nn[nH]n2)[C@H](C)c2c(F)ccc(C)c2C)c1 [Example 52, 2-fluoro-N-((1S,2R)-2-(6-fluoro-2,3-dimethylpehnyl)-1-(2H-tetrazol-5-yl)propyl)-5-methylbenzenesulfonamide] |  | 1 to 5 | 
19 | C=Cc1cc(Cl)ccc1S(=O)(=O)N[C@H](c1nn[nH]n1)[C@H](C)c1c(F)ccc(C)c1C [Example 63, 4-chloro-N-((1S,2R)-2-(6-fluoro-2,3-dimethylphenyl)-1-(2H-tetrazol-5-yl)propyl)-2-vinylbenzenesulfonamide] | 30 to 50 |  | 
20 | Cc1ccc(F)c([C@@H](C)[C@H](NS(=O)(=O)c2ccc(Cl)cc2Br)c2nn[nH]n2)c1C [Example 65, 2-bromo-4-chloro-N-((1S,2R)-2-(6-fluoro-2,3-dimethylphenyl)-1-(2H-tetrazol-5-yl)propyl)benzenesulfonamide] | 10 to 30 |  | 
21 | Cc1ccc(F)c([C@@H](C)[C@H](NS(=O)(=O)c2ccc(Cl)c([C@@H](F)C(=O)N(C)C)c2)c2nn[nH]n2)c1C [Example 66, (R)-2-(2-chloro-5-(N-((1S,2R)-2-(6-fluoro-2,3-dimethylphenyl)-1-(2H-tetrazol-5-yl)propyl)sulfamoyl)phenyl)-2-fluoro-N,N-dimethylacetamide] | 50 to 100 |  | 
22 | Cc1ccc(F)c([C@@H](C)[C@H](NS(=O)(=O)c2ccc(Cl)c([C@H](F)C(=O)N(C)C)c2)c2nn[nH]n2)c1C [Example 67, (S)-2-(2-chloro-5-(N-((1S,2R)-2-(6-fluoro-2,3-dimethylphenyl)-1-(2H-tetrazol-5-yl)propyl)sulfamoyl)phenyl)-2-fluoro-N,N-dimethylacetamide] | 50 to 100 |  | 
23 | Cc1ccc(F)c([C@@H](C)[C@H](NS(=O)(=O)c2ccc(Cl)cc2C(=O)N(C)C)c2nn[nH]n2)c1C [Example 68, 5-chloro-2-(N-((1S,2R)-2-(6-fluoro-2,3-dimethylphenyl)-1-(2H-tetrazol-5-yl)propyl)sulfamoyl)-N,N-dimethylbenzamide] | 50 to 100 |  | 
